Assay results published in PMC6639057 (Investigational new drugs, 2018).
Where “and” joins values, the source holds several entries; their conditions need not be identical. Identical values can stand only once.

Columns and labels:
[1] = system: TNBC cell lines and xenografts; conditions: in combination with ixabepilone; cited from earlier work
[2] = system: taxane- and platinum-resistant ovarian cancer; assay: Tumor response, dose-expansion ovarian cancer cohort; assay type: in vivo, human
[3] = Central read, RECIST 1.1, expansion 40 mg + G-CSF, OC (n = 29)
[4] = GCIG criteria (RECIST 1.1 and CA 125), expansion 40 mg + G-CSF, OC (n = 29)
[5] = Local read, RECIST 1.0, expansion 40 mg + G-CSF, OC (n = 29)

## Cc1csc(-c2nnc(Nc3ccc(Oc4ncccc4-c4ccnc(N)n4)cc3)c3ccccc23)c1 [AMG 900]
[1]
  Growth of TNBC cell lines and xenografts: inhibited growth
[2]; Central read, RECIST 1.1, Kaplan-Meier, expansion 40 mg + G-CSF, OC (n = 29)
  Progression-free survival, median (80% CI): 31.7 (23.7–47.6) weeks
[2]; [3]
  Best overall response: Complete response: 0 Patients (%)
  Best overall response: Not evaluable (postbaseline scan not readable): 2 (7) Patients (%)
  Best overall response: Partial response: 3 (10) Patients (%)
  Best overall response: Progressive disease: 3 (10) Patients (%)
  Best overall response: Stable disease: 21 (72) Patients (%)
[2]; [4]
  Best overall response: Complete response: 0 Patients (%)
  Best overall response: Not evaluable (postbaseline scan not readable): 3 (10) Patients (%)
  Best overall response: Partial response: 7 (24) Patients (%)
  Best overall response: Progressive disease: 3 (10) Patients (%)
  Best overall response: Stable disease: 16 (55) Patients (%)
[2]; GCIG criteria (RECIST 1.1 and CA 125), expansion ovarian cancer (7 of 29)
  Partial response: 24.1%
[2]; GCIG criteria (central read), expansion ovarian cancer, 95% CI 10.3%–43.5%
  Objective response rate (ORR): 24.1%
[2]; GCIG criteria, expansion ovarian cancer (3 of 29)
  Progressive disease: 10.3%
[2]; GCIG criteria, expansion ovarian cancer (16 of 29)
  Stable disease: 55.2%
[2]; Kaplan-Meier, ovarian cancer patients from dose-escalation (n = 4) and dose-expansion (n = 29)
  Median (80% CI) PFS: 34.1 (31.1–not estimable) weeks
[2]; [5]
  Best overall response: Complete response: 0 Patients (%)
  Best overall response: Not evaluable (postbaseline scan not readable): 2 (7) Patients (%)
  Best overall response: Partial response: 3 (10) Patients (%)
  Best overall response: Progressive disease: 4 (14) Patients (%)
  Best overall response: Stable disease: 20 (69) Patients (%)
[2]; RECIST 1.1, expansion ovarian cancer (3 of 29)
  Progressive disease: 10.3%
[2]; RECIST 1.1, expansion ovarian cancer (21 of 29)
  Stable disease as best response: 72.4%
[2]; RECIST 1.1, expansion ovarian cancer, 95% CI: 16.1–34.1
  Median duration of response: 24.1 weeks
[2]; RECIST 1.1 central read, expansion ovarian cancer, 95% CI 2.0%–28.0%
  Objective response rate (ORR): 10.3%
[2]; RECIST 1.1 central, expansion ovarian cancer (3 of 29)
  Partial response: 10.3%
[2]; by GCIG criteria, same three ovarian cancer patients
  Duration of partial response, individual patients: 16.1 weeks and 65.6 weeks and 74.9 weeks
[2]; by RECIST 1.1, three ovarian cancer patients
  Duration of partial response, individual patients: 34.1 weeks and 24.1 weeks and 16.1 weeks
